Like-named read-outs stand apart in the source and are kept apart here.
Tests used:
GST-PPARG-LBD = GST-PPARG-LBD (Homo sapiens (Human), UniProt P37231); assay: Lanthascreen PPARG competitive binding assay (Invitrogen, TR-FRET); settings: NA = not active, inc = incomplete curve, read-out: IC50 (nM) Lantha
Outline: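 Values are fold change in 520 nm/490 nm FRET ratio relative to a 2% DMSO no-ligand control, excitation 340 nm. Compound dilutions starting at 10 μM competed against 5 nM Fluormone Pan-PPAR Green for GST-PPARG-LBD bound by 5 nM Tb anti-GST antibody. Incubation 2 h in the dark in assay buffer C, triplicate wells.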

[1] = target: Gal-4-PPAR (human PPAR LBD fused to GAL4 DNA-binding domain) (Homo sapiens (Human), UniProt P37231); assay: GAL4-PPARG LBD / UAS-luciferase transactivation assay in HEK 293T cells; assay type: cell-based
Gal-4-PPAR (human PPAR LBD fused to GAL4 DNA-binding domain), sequence (P37231 238-503): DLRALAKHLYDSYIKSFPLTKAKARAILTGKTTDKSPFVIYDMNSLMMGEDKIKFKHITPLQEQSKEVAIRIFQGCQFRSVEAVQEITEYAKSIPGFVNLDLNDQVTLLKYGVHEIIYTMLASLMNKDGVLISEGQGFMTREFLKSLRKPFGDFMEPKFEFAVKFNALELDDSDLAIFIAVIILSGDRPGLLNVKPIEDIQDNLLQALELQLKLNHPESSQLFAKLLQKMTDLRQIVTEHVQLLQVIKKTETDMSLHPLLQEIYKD

[2] = Lanthascreen competitive binding
[3] = GAL4 transactivation, HEK 293T cells; NA = not active; read-out: EC50 (nM) GAL4
[4] = HEK-293T, 18 h; read-out: % transactivation at 10 μM (GAL4)
[5] = Lanthascreen PPARG competitive binding
[6] = GAL4 transactivation; read-out: EC50 (nM) GAL4
[7] = HEK-293T, 18 h, read-out: % transactivation at 10 μM (GAL4)

GST-PPARG-LBD, sequence (P37231 238-503): as above

SMILES	IC50 (GST-PPARG-LBD; [2])	EC50 [1, 3]	activation at 10 µM [1, 4]	IC50 (GST-PPARG-LBD; [5])	EC50 [1, 6]	activation at 10 µM [1, 7]
Cc1c(C)n(Cc2ccc(-c3ccccc3C(=O)O)cc2)c2ccc(C(=O)N[C@@H](C)c3ccc(C(F)(F)F)cc3)cc12 [Example 154, (S)-4′-((2,3-dimethyl-5-((1-(4-(trifluoromethyl)phenyl)ethyl)carbamoyl)-1H-indol-1-yl)methyl)-[1,1′-biphenyl]-2-carboxylic acid]	61 nM	522 nM	5%	–	–	–
Cc1c(C)n(Cc2ccc(-c3ccccc3-c3nnn[nH]3)cc2)c2ccc(C(=O)N[C@@H](C)c3cccc(C4CC4)c3)cc12 [Example 188, (S)-1-((2′-(1H-tetrazol-5-yl)-[1,1′-biphenyl]-4-yl)methyl)-N-(1-(3-cyclopropylphenyl)ethyl)-2,3-dimethyl-1H-indole-5-carboxamide]	10 nM	3150 nM	20%	–	–	–
Cc1c(C)n(Cc2ccc(-c3ccccc3C(=O)O)cc2)c2ccc(C(=O)N[C@@H](C)c3cc(C(F)(F)F)ccc3Cl)cc12 [Example 302, (S)-4′-((5-((1-(2-Chloro-5-(trifluoromethyl)phenyl)ethyl)carbamoyl)-2,3-dimethyl-1H-indol-1-yl)methyl)-[1,1′-biphenyl]-2-carboxylic acid]	–	–	20%	3 nM	48 nM	–
COc1ccc([C@H](C)NC(=O)c2ccc3c(c2)c(C)c(C)n3Cc2ccc(-c3ccccc3C(=O)O)cc2)cc1Cl [Example 197, (S)-4′-((5-((1-(3-chloro-4-methoxyphenyl)ethyl)carbamoyl)-2,3-dimethyl-1H-indol-1-yl)methyl)-[1,1′-biphenyl]-2-carboxylic acid]	17 nM	1630 nM	20%	–	–	–
Cc1c(C)n(Cc2ccc(-c3ccccc3C(=O)O)cc2)c2ccc(C(=O)N[C@@H](C)c3cccc(Cl)c3F)cc12 [Example 232, (S)-4′-((5-((1-(3-chloro-2-fluorophenyl)ethyl)carbamoyl)-2,3-dimethyl-1H-indol-1-yl)methyl)-[1,1′-biphenyl]-2-carboxylic acid]	18 nM	297 nM	30%	–	–	–
Cc1c(C)n(Cc2ccc(-c3ccccc3C(=O)O)cc2)c2ccc(C(=O)NC(C)(C)c3ccc(Br)cc3)cc12 [Example 180, 4′-((5-((2-(4-bromophenyl)propan-2-yl)carbamoyl)-2,3-dimethyl-1H-indol-1-yl)methyl)-[1,1′-biphenyl]-2-carboxylic acid]	1 nM	119 nM	–	–	–	60%
Cc1c(C)n(Cc2ccc(-c3ccccc3C(=O)O)cc2)c2ccc(C(=O)N[C@@H](C)c3cccc(F)c3)cc12 [Example 158, (S)-4′-((5-((1-(3-fluorophenyl)ethyl)carbamoyl)-2,3-dimethyl-1H-indol-1-yl)methyl)-[1,1′-biphenyl]-2-carboxylic acid]	8 nM	259 nM	–	–	–	40%
Cc1c(C)n(Cc2ccc(-c3ccccc3C(=O)NS(C)(=O)=O)cc2)c2ccc(C(=O)N[C@@H](C)c3cccc(C(C)C)c3)cc12 [Example 314, (S)—N-(1-(3-Isopropylphenyl)ethyl)-2,3-dimethyl-1-((2′-((methylsulfonyl)carbamoyl)-[1,1′-biphenyl]-4-yl)methyl)-1H-indole-5-carboxamide]	–	–	5%	285 nM	1650 nM	–
Cc1c(C)n(Cc2ccc(-c3ccccc3C(=O)O)cc2)c2ccc(C(=O)N[C@H](C)c3ccnc(C4CC4)c3)cc12 [Example 270, (R)-4′-((5-(1-(2-cyclopropylpyridin-4-yl)ethylcarbamoyl)-2,3-dimethyl-1H-indol-1-yl)methyl)biphenyl-2-carboxylic acid]	15 nM	686 nM	40%	–	–	–
Cc1c(C)n(Cc2ccc(-c3ccccc3C(=O)O)cc2)c2ccc(C(=O)N[C@@H](C)C3CCN(C(=O)OCc4ccccc4)CC3)cc12 [Example 202, (S)-4′-((5-((1-(1-((benzyloxy)carbonyl)piperidin-4-yl)ethyl)carbamoyl)-2,3-dimethyl-1H-indol-1-yl)methyl)-[1,1′-biphenyl]-2-carboxylic acid]	35 nM	1750 nM	40%	–	–	–
COc1cc(C(F)(F)F)ccc1[C@H](C)NC(=O)c1ccc2c(c1)c(C)c(C)n2Cc1ccc(-c2ccccc2C(=O)O)cc1 [Example 223, (S)-4′-((5-((1-(2-methoxy-4-(trifluoromethyl)phenyl)ethyl)carbamoyl)-2,3-dimethyl-1H-indol-1-yl)methyl)-[1,1′-biphenyl]-2-carboxylic acid]	73 nM	676 nM	10%	–	–	–
Cc1c(C)n(Cc2ccc(-c3ccccc3C(=O)O)cc2)c2ccc(C(=O)N[C@H](C)c3ccccc3C(F)(F)F)cc12 [Example 207, (R)-4′-((2,3-dimethyl-5-((1-(2-(trifluoromethyl)phenyl)ethyl)carbamoyl)-1H-indol-1-yl)methyl)-[1,1′-biphenyl]-2-carboxylic acid]	1 nM	629 nM	20%	–	–	–
COc1ccc(F)cc1[C@H](C)NC(=O)c1ccc2c(c1)c(C)c(C)n2Cc1ccc(-c2ccccc2C(=O)O)cc1 [Example 206, (S)-4′-((5-((1-(5-fluoro-2-methoxyphenyl)ethyl)carbamoyl)-2,3-dimethyl-1H-indol-1-yl)methyl)-[1,1′-biphenyl]-2-carboxylic acid]	26 nM	405 nM	20%	–	–	–
Cc1c(C)n(Cc2ccc(-c3ccccc3C(=O)O)cc2)c2ccc(C(=O)N[C@@H](C)c3ccnc(Br)c3)cc12 [Example 267, (S)-4′-((5-(1-(2-bromopyridin-4-yl)ethylcarbamoyl)-2,3-dimethyl-1H-indol-1-yl)methyl)biphenyl-2-carboxylic acid]	98 nM	2490 nM	40%	–	–	–
CCc1ccc([C@H](C)NC(=O)c2ccc3c(c2)c(C)c(C)n3Cc2ccc(-c3ccccc3C(=O)O)cc2)cc1 [Example 225, (S)-4′-((5-((1-(4-ethylphenyl)ethyl)carbamoyl)-2,3-dimethyl-1H-indol-1-yl)methyl)-[1,1′-biphenyl]-2-carboxylic acid]	43 nM	1130 nM	20%	–	–	–
CCOc1cccc([C@H](C)NC(=O)c2ccc3c(c2)c(C)c(C)n3Cc2ccc(-c3ccccc3C(=O)O)cc2)c1 [Example 151, (S)-4′-((5-((1-(3-ethoxyphenyl)ethyl)carbamoyl)-2,3-dimethyl-1H-indol-1-yl)methyl)-[1,1′-biphenyl]-2-carboxylic acid]	21 nM	618 nM	–	–	–	25%
Cc1c(C)n(Cc2ccc(-c3ccccc3C(=O)O)cc2)c2ccc(C(=O)N[C@@H](C)c3ccnc4ccccc34)cc12 [Example 149, (S)-4′-((2,3-dimethyl-5-((1-(quinolin-4-yl)ethyl)carbamoyl)-1H-indol-1-yl)methyl)-[1,1′-biphenyl]-2-carboxylic acid]	6 nM	1680 nM	15%	–	–	–
Cc1c(C)n(Cc2ccc(-c3ccccc3C(=O)O)cc2)c2ccc(C(=O)N[C@@H](C)c3ccc(C(F)(F)F)cc3F)cc12 [Example 298, (S)-4′-((5-((1-(2-Fluoro-4-(trifluoromethyl)phenyl)ethyl)carbamoyl)-2,3-dimethyl-1H-indol-1-yl)methyl)-[1,1′-biphenyl]-2-carboxylic acid]	–	–	10%	11 nM	448 nM	–
